{"source": "ChEMBL document CHEMBL1128014", "about": "“Synthesis and biological activity of a potent antiplatelet 7-aminofurochromone” (Bioorg Med Chem Lett, 1994)", "key": {"Homo sapiens [1]": {"organism": "Homo sapiens", "test": "Compound was tested for its ability to inhibit ADP-induced human platelet aggregation", "assay_type": "functional"}, "Homo sapiens [2]": {"organism": "Homo sapiens", "test": "Potency to inhibit ADP-induced human platelet aggregation was determined relative to compound 1(5-Methyl-3-morpholin-4-yl-6-(2-naphthalene-1-one)", "assay_type": "functional"}, "Canis familiaris [3]": {"tested_on": "Canis familiaris", "test": "Effect on Cyclical Flow Reductions induced by intracoronary platelet aggregation in stenosed canine coronary arteries at an iv dose of 10 ug/kg plus a constant infusion of 1 ug/kg/min in canine model", "assay_type": "functional, Canis lupus familiaris"}, "Canis familiaris [4]": {"tested_on": "Canis familiaris", "test": "Effect on Cyclical Flow Reductions induced by intracoronary platelet aggregation in stenosed canine coronary arteries at an iv dose of 100 ug/kg plus a constant infusion of 10 ug/kg/min in canine model", "assay_type": "functional, Canis lupus familiaris"}, "Canis familiaris [5]": {"tested_on": "Canis familiaris", "test": "Effect on Cyclical Flow Reductions induced by intracoronary platelet aggregation in stenosed canine coronary arteries at an iv dose of 10 ug/kg/60 min in a canine model", "assay_type": "functional, Canis lupus familiaris"}, "Canis familiaris [6]": {"tested_on": "Canis familiaris", "test": "Effect on Cyclical Flow Reductions induced by intracoronary platelet aggregation in stenosed canine coronary arteries at an iv dose of 30 ug/kg plus a constant infusion of 3 ug/kg/min in canine model", "assay_type": "functional, Canis lupus familiaris"}, "Canis familiaris [7]": {"tested_on": "Canis familiaris", "test": "Effect on Cyclical Flow Reductions induced by intracoronary platelet aggregation in stenosed canine coronary arteries at an iv dose of 3 ug/kg/60 min in canine model", "assay_type": "functional, Canis lupus familiaris"}, "Canis familiaris [8]": {"tested_on": "Canis familiaris", "test": "Time interval between end of drug treatment and restoration of CFR pattern of blood flow at an iv dose of 10 ug/kg plus a constant infusion of 1 ug/kg/min in canine model", "assay_type": "functional, Canis lupus familiaris"}, "Canis familiaris [9]": {"tested_on": "Canis familiaris", "test": "Time interval between end of drug treatment and restoration of CFR pattern of blood flow at an iv dose of 100 ug/kg plus a constant infusion of 10 ug/kg/min in canine model", "assay_type": "functional, Canis lupus familiaris"}, "Canis familiaris [10]": {"tested_on": "Canis familiaris", "test": "Time interval between end of drug treatment and restoration of CFR pattern of blood flow at an iv dose of 10 ug/kg/60 min in a canine model", "assay_type": "functional, Canis lupus familiaris"}, "Canis familiaris [11]": {"tested_on": "Canis familiaris", "test": "Effect on mean arterial pressure was determined at an iv dose of 10 ug/kg plus a constant infusion of 1 ug/kg/min in canine model", "assay_type": "functional, Canis lupus familiaris, Artery"}, "Canis familiaris [12]": {"tested_on": "Canis familiaris", "test": "Effect on mean arterial pressure was determined at an iv dose of 100 ug/kg plus a constant infusion of 10 ug/kg/min in canine model", "assay_type": "functional, Canis lupus familiaris, Artery"}, "Canis familiaris [13]": {"tested_on": "Canis familiaris", "test": "Effect on mean arterial pressure was determined at an iv dose of 10 ug/kg/60 min in a canine model", "assay_type": "functional, Canis lupus familiaris, Artery"}, "Canis familiaris [14]": {"tested_on": "Canis familiaris", "test": "Effect on mean arterial pressure was determined at an iv dose of 30 ug/kg plus a constant infusion of 3 ug/kg/min in canine model", "assay_type": "functional, Canis lupus familiaris, Artery"}, "Canis familiaris [15]": {"tested_on": "Canis familiaris", "test": "Effect on mean arterial pressure was determined at an iv dose of 3 ug/kg/60 min in canine model", "assay_type": "functional, Canis lupus familiaris, Artery"}, "Canis familiaris [16]": {"tested_on": "Canis familiaris", "test": "Effect on heart rate was determined at an iv dose of 100 ug/kg plus a constant infusion of 10 ug/kg/min in a canine model", "assay_type": "functional, Canis lupus familiaris"}, "Canis familiaris [17]": {"tested_on": "Canis familiaris", "test": "Effect on heart rate was determined at an iv dose of 10 ug/kg/60 min in a canine model", "assay_type": "functional, Canis lupus familiaris"}, "Canis familiaris [18]": {"tested_on": "Canis familiaris", "test": "Effect on heart rate was determined at an iv dose of 30 ug/kg plus a constant infusion of 3 ug/kg/min in a canine model", "assay_type": "functional, Canis lupus familiaris"}, "Canis familiaris [19]": {"tested_on": "Canis familiaris", "test": "Effect on heart rate was determined at an iv dose of 3 ug/kg/60 min in canine model", "assay_type": "functional, Canis lupus familiaris"}, "Canis familiaris [20]": {"tested_on": "Canis familiaris", "test": "Time interval between end of drug treatment and restoration of CFR pattern of blood flow at an iv dose of 30 ug/kg plus a constant infusion of 3 ug/kg/min in canine model", "assay_type": "functional, Canis lupus familiaris"}, "Canis familiaris [21]": {"tested_on": "Canis familiaris", "test": "Time interval between end of drug treatment and restoration of CFR pattern of blood flow at an iv dose of 3 ug/kg/60 min in canine model", "assay_type": "functional, Canis lupus familiaris"}, "Canis familiaris [22]": {"tested_on": "Canis familiaris", "test": "Time interval between start of drug treatment and first change in CFR pattern of blood flow at an iv dose of 100 ug/kg plus a constant infusion of 10 ug/kg/min", "assay_type": "functional, Canis lupus familiaris"}, "Canis familiaris [23]": {"tested_on": "Canis familiaris", "test": "Time interval between start of drug treatment and first change in CFR pattern of blood flow at an iv dose of 10 ug/kg/60 min in a canine model", "assay_type": "functional, Canis lupus familiaris"}, "Canis familiaris [24]": {"tested_on": "Canis familiaris", "test": "Time interval between start of drug treatment and first change in CFR pattern of blood flow at an iv dose of 30 ug/kg plus a constant infusion of 3 ug/kg/min", "assay_type": "functional, Canis lupus familiaris"}, "Homo sapiens [25]": {"organism": "Homo sapiens", "test": "Effect on PGI2-stimulated cAMP in washed human platelets at a concentration of 0.3 uM +1 ng/mL of PGI2; pmol/5E8 platelets", "assay_type": "functional"}, "Homo sapiens [26]": {"organism": "Homo sapiens", "test": "Effect on cAMP levels in washed platelets at a concentration of 0.1 uM; pmol/5E8 platelets", "assay_type": "functional"}, "Homo sapiens [27]": {"organism": "Homo sapiens", "test": "Effect on cAMP levels in washed platelets at a concentration of 0.3 uM; pmol/5E8 platelets", "assay_type": "functional"}, "Homo sapiens [28]": {"organism": "Homo sapiens", "test": "Effect on aggregation of thrombin-stimulated washed human platelets at a concentration of 0.1 uM", "assay_type": "functional"}, "Homo sapiens [29]": {"organism": "Homo sapiens", "test": "Effect on aggregation of thrombin-stimulated washed human platelets at a concentration of 0.3 uM", "assay_type": "functional"}, "Homo sapiens [30]": {"organism": "Homo sapiens", "test": "Effect on aggregation of thrombin-stimulated washed human platelets at a concentration of 1 uM", "assay_type": "functional"}, "Canis familiaris [31]": {"tested_on": "Canis familiaris", "test": "Effect on heart rate was determined at an iv dose of 10 ug/kg plus a constant infusion of 1 ug/kg/min in a canine model", "assay_type": "functional, Canis lupus familiaris"}}}
{"smiles": "Cc1c2c(cc3c(=O)cc(N4CCOCC4)oc13)CC(CN1CCSCC1)O2", "note": "(stereo not given)", "values": [{"measurement": "IC50", "setting": "Homo sapiens [1]", "result": 3.6, "unit": "µM"}, {"measurement": "Relative potency", "setting": "Homo sapiens [2]", "result": 2.4}]}
{"smiles": "Cc1c2oc(CN3CCCC3)cc2cc2c(=O)cc(N3CCOCC3)oc12", "values": [{"measurement": "IC50", "setting": "Homo sapiens [1]", "result": 15.4, "unit": "µM"}, {"measurement": "Relative potency", "setting": "Homo sapiens [2]", "result": 0.5}]}
{"smiles": "Cc1c(OCCN2CCN(C)CC2)ccc2c(=O)cc(N3CCOCC3)oc12", "values": [{"measurement": "IC50", "setting": "Homo sapiens [1]", "result": 8.6, "unit": "µM"}, {"measurement": "Relative potency", "setting": "Homo sapiens [2]", "result": 1}]}
{"smiles": "Cc1c2c(cc3c(=O)cc(N4CCOCC4)oc13)CC(CN1CCCCC1)O2", "note": "(stereo not given)", "values": [{"measurement": "IC50", "setting": "Homo sapiens [1]", "result": 6.2, "unit": "µM"}, {"measurement": "Relative potency", "setting": "Homo sapiens [2]", "result": 0.5}]}
{"smiles": "Cc1c2oc(CN3CCN(C)CC3)cc2cc2c(=O)cc(N3CCOCC3)oc12", "values": [{"measurement": "IC50", "setting": "Homo sapiens [1]", "result": 9.1, "unit": "µM"}, {"measurement": "Relative potency", "setting": "Homo sapiens [2]", "result": 0.9}]}
{"smiles": "Cc1c2c(cc3c(=O)cc(N4CCOCC4)oc13)CC(CN1CCN(C)CC1)O2", "note": "(stereo not given)", "values": [{"measurement": "IC50", "setting": "Homo sapiens [1]", "result": 5.6, "unit": "µM"}, {"measurement": "Relative potency", "setting": "Homo sapiens [2]", "result": 0.5}]}
{"smiles": "Cc1c2oc(CN3CCSCC3)cc2cc2c(=O)cc(N3CCOCC3)oc12", "values": [{"measurement": "CFR rating", "setting": "Canis familiaris [3]", "result": 1}, {"measurement": "CFR rating", "setting": "Canis familiaris [4]", "result": 3}, {"measurement": "CFR rating", "setting": "Canis familiaris [5]", "result": 3}, {"measurement": "CFR rating", "setting": "Canis familiaris [6]", "result": 2}, {"measurement": "CFR rating", "setting": "Canis familiaris [7]", "result": 3}, {"measurement": "Offset time", "setting": "Canis familiaris [8]", "result": 3, "unit": "min"}, {"measurement": "Offset time", "setting": "Canis familiaris [9]", "result": ">60", "unit": "min"}, {"measurement": "Offset time", "setting": "Canis familiaris [10]", "result": 36, "unit": "min"}, {"measurement": "Mean arterial blood pressure", "setting": "Canis familiaris [11]", "result": 99, "unit": "%"}, {"measurement": "Mean arterial blood pressure", "setting": "Canis familiaris [12]", "result": 74, "unit": "%"}, {"measurement": "Mean arterial blood pressure", "setting": "Canis familiaris [13]", "result": 86, "unit": "%"}, {"measurement": "Mean arterial blood pressure", "setting": "Canis familiaris [14]", "result": 88, "unit": "%"}, {"measurement": "Mean arterial blood pressure", "setting": "Canis familiaris [15]", "result": 93, "unit": "%"}, {"measurement": "Heart rate", "setting": "Canis familiaris [16]", "result": 116, "unit": "%"}, {"measurement": "Heart rate", "setting": "Canis familiaris [17]", "result": 116, "unit": "%"}, {"measurement": "Heart rate", "setting": "Canis familiaris [18]", "result": 112, "unit": "%"}, {"measurement": "Heart rate", "setting": "Canis familiaris [19]", "result": 104, "unit": "%"}, {"measurement": "Offset time", "setting": "Canis familiaris [20]", "result": 34, "unit": "min"}, {"measurement": "Offset time", "setting": "Canis familiaris [21]", "result": 27, "unit": "min"}, {"measurement": "Onset time", "setting": "Canis familiaris [22]", "result": 1, "unit": "min"}, {"measurement": "Onset time", "setting": "Canis familiaris [23]", "result": 8, "unit": "min"}, {"measurement": "Onset time", "setting": "Canis familiaris [24]", "result": 1, "unit": "min"}, {"measurement": "IC50", "setting": "Homo sapiens [1]", "result": 0.35, "unit": "µM"}, {"measurement": "Relative potency", "setting": "Homo sapiens [2]", "result": 4.5}, {"measurement": "Activity", "setting": "Homo sapiens [25]", "result": 163.1}, {"measurement": "Activity", "setting": "Homo sapiens [26]", "result": 13.2}, {"measurement": "Activity", "setting": "Homo sapiens [27]", "result": 36.1}, {"measurement": "Activity", "setting": "Homo sapiens [28]", "result": 25.7}, {"measurement": "Aggregation", "setting": "Homo sapiens [28]", "result": 14, "unit": "%"}, {"measurement": "Aggregation", "setting": "Homo sapiens [29]", "result": 0, "unit": "%"}, {"measurement": "Activity", "setting": "Homo sapiens [30]", "result": 25.7}, {"measurement": "Aggregation", "setting": "Homo sapiens [30]", "result": 0, "unit": "%"}, {"measurement": "Heart rate", "setting": "Canis familiaris [31]", "result": 106, "unit": "%"}]}
